Source: PMC12332667, “Role of Structural Modifications in Peptidomimetic Compounds as Potential Antimicrobial Agents against Staphylococcus aureus and Streptococcus pyogenes: Balancing Bioavailability, Safety, and Antimicrobial Activity” (ACS Omega, 2025)
Values after ≈ are worked out from the molar mass of the structure shown. Values joined by “and” are separate entries in the source; they are usually repeats but may differ in a detail not shown here. Equal entries are not always repeated.

Tests used:
[1] = system: S. mutans c.i.; assay: MIC/MBC broth microdilution, S. mutans; format: cell-based, Streptococcus mutans
Outline: (§1)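 Bacteria inoculated at about 10^5 CFU/mL in BHI broth and incubated 18 h at 37 °C with serial dilutions of peptidomimetics, NCCLS microdilution format. MBC taken as lowest concentration leaving no more than 3 colonies (≥99.9% kill); MIC as lowest concentration without obvious growth (≥90% of untreated); solvent controls included.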

[2] = system: P. vulgaris ATCC 6896; assay: MIC/MBC broth microdilution, P. vulgaris; format: cell-based, Proteus vulgaris
Outline: as §1

[3] = system: S. intemrdius c.i.; assay: MIC/MBC broth microdilution, S. intermedius; format: cell-based, Staphylococcus intermedius
Outline: as §1

[4] = system: fibroblasts (46BR.1N); assay: LDH cytotoxicity test, fibroblasts; format: cell-based; details: 48 h; for cytotoxicity (LDH), in words: 50-150 μg/mL
Outline: (§2)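 Cytotoxicity as LDH release after 48 h serum-free treatment (50, 100, 150 μg/mL peptidomimetics) of 46BR.1N fibroblasts or HaCaT keratinocytes seeded at 5000 per well. Absorbance 450 nm; untreated set as 0% and Triton X-100 1% as maximal release; Mann–Whitney U test, p ≤ 0.05.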

[5] = system: immortalized human HaCaT keratinocytes; assay: XTT cell proliferation assay, keratinocytes; format: cell-based; details: for effect on proliferation, in words: XTT, 48 and 72 h, 0.01–150 μg/mL
Outline: (§3)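 Proliferation was read as XTT absorbance at 490 nm after 4 h of reagent incubation, following 48 or 72 h of peptide exposure in serum-free HG-DMEM (37 °C, 5% CO2). The 72 h arm included a half-medium change with second peptide dose at 48 h. Significance by Mann–Whitney U, p ≤ 0.05.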

[6] = system: P. aeruginosa ATCC 10145; assay: MIC/MBC broth microdilution, P. aeruginosa; format: cell-based
Outline: as §1

[7] = system: E. coli ATCC 25922; assay: MIC/MBC broth microdilution, E. coli; format: cell-based, Escherichia coli
Outline: as §1

[8] = system: K. pneumoniae ATCC 700603; assay: MIC/MBC broth microdilution, K. pneumoniae; format: cell-based
Outline: as §1

[9] = system: S. pyogenes ATCC 19615; assay: MIC/MBC broth microdilution, S. pyogenes; format: cell-based, Streptococcus pyogenes; details: S. pyogenes
Outline: as §1

[10] = system: E. faecalis c.i.; assay: MIC/MBC broth microdilution, E. faecalis; format: cell-based, Enterococcus faecalis
Outline: as §1

[11] = system: S. aureus ATCC 43300; assay: MIC/MBC broth microdilution, S. aureus; format: cell-based, Staphylococcus aureus; details: S. aureus
[12] = system: S. schleiferi c.i.; assay: MIC/MBC broth microdilution, S. schleiferi; format: cell-based, Staphylococcus schleiferi
Outline: as §1

[13] = Hydrophobicity by reverse-phase chromatography; format: physicochemical; details: acetonitrile content in the mobile phase at the retention time
Description: Reverse-phase chromatography was employed to assess the hydrophobicity characteristics of the peptidomimetics. Hydrophobicity was quantified by determining the acetonitrile content in the mobile phase at the retention time of a peptidyl derivative (Table S2). The least hydrophobic compound (40% acetonitrile) was A-198, which aligns with the calculations of hydrophobicity by SwissADME and pkCSM (Table ). Next in the hydrophobicity sequence were A-197, A-220, A-219, A-174, and A-221, eluting with 42.5-43.9% of acetonitrile. Then there were followed by […], and A-179, with the acetonitrile percentage of 44.8-49.8. The compounds A-176, A-20, A-152, A-134, and A-210 needed over 50% of acetonitrile to be eluted from the column.

[14] = system: human dermal fibroblast cell line (46BR.1N); assay: XTT cell proliferation assay, fibroblasts; format: cell-based; details: for effect on proliferation, in words: XTT, 48 and 72 h, 0.01–150 μg/mL
Outline: as §3

[15] = system: S. cohnii c.i.; assay: MIC/MBC broth microdilution, S. cohnii; format: cell-based, Staphylococcus cohnii
Outline: as §1

[16] = system: immortalized human keratinocytes (HaCaT); assay: LDH cytotoxicity test, keratinocytes; format: cell-based; details: 48 h; for cytotoxicity (LDH), in words: 50-150 μg/mL
Outline: as §2

[17] = system: S. agalactiae ATCC 27956; assay: MIC/MBC broth microdilution, S. agalactiae; format: cell-based, Streptococcus agalactiae; details: S. agalactiae
Outline: as §1

[18] = up to 150 μg/mL, A-193 and A-179 after 48 h

Q: With `CC(C)[C@@H](CNC(=O)C(=Cc1ccccc1)c1ccccc1)NC(=O)[C@H](CCCNC(=N)N)NC(=O)[C@H](CCCNC(=N)N)NC(=O)OCc1ccccc1` [Compound A-179] as the compound, how does the MIC ([1]; H2O) read?
A: > 512 µg/mL

Q: And the MIC ([1]; water additive DMSO)?
A: > 512 µg/mL

Q: What about the MIC ([1]; water additive EtOH) of the same compound?
A: > 512 µg/mL

Q: And the MIC ([2]; H2O)?
A: > 512 µg/mL

Q: What about the MIC ([2]; water additive DMSO) of the same compound?
A: > 512 µg/mL

Q: And the MIC ([2]; water additive EtOH)?
A: > 512 µg/mL

Q: What about the MBC ([3]; H2O) of the same compound?
A: 32 µg/mL (≈ 42.4 µM)

Q: What about the MIC ([3]; H2O) of the same compound?
A: 16 µg/mL (≈ 21.2 µM)

Q: What about the MBC ([3]; water additive DMSO) of the same compound?
A: 32 µg/mL (≈ 42.4 µM)

Q: And the MIC ([3]; water additive DMSO)?
A: 16 µg/mL (≈ 21.2 µM)

Q: What about the MBC ([3]; water additive EtOH) of the same compound?
A: 16 µg/mL (≈ 21.2 µM)

Q: And the MIC ([3]; water additive EtOH)?
A: 16 µg/mL (≈ 21.2 µM)

Q: And the “cytotoxicity (LDH), in words” value [4]?
A: less pronounced in fibroblasts

Q: And the “effect on proliferation, in words” value [5]?
A: negative impact

Q: And the “antiproliferative effect (decrease vs control)” value [5, 18]?
A: ~50%

Q: And the MIC ([6]; H2O)?
A: 256 µg/mL (≈ 339 µM)

Q: And the MIC ([6]; water additive DMSO)?
A: > 512 µg/mL

Q: And the MIC ([6]; water additive EtOH)?
A: > 512 µg/mL

Q: And the MIC ([7]; H2O)?
A: > 512 µg/mL

Q: And the MIC ([7]; water additive DMSO)?
A: > 512 µg/mL

Q: And the MIC ([7]; water additive EtOH)?
A: > 512 µg/mL

Q: And the MIC ([8]; H2O)?
A: 512 µg/mL (≈ 678 µM)

Q: What about the MIC ([8]; water additive DMSO) of the same compound?
A: > 512 µg/mL

Q: What about the MIC ([8]; water additive EtOH) of the same compound?
A: > 512 µg/mL

Q: And the MBC ([9]; H2O)?
A: 32 µg/mL (≈ 42.4 µM)

Q: What about the MIC ([9]; H2O) of the same compound?
A: 16 µg/mL (≈ 21.2 µM)

Q: What about the MBC ([9]; water additive DMSO) of the same compound?
A: 32 µg/mL (≈ 42.4 µM)

Q: What about the MIC ([9]; water additive DMSO) of the same compound?
A: 16 µg/mL (≈ 21.2 µM)

Q: What about the MBC ([9]; water additive EtOH) of the same compound?
A: 32 µg/mL (≈ 42.4 µM)

Q: What about the MIC ([9]; water additive EtOH) of the same compound?
A: 8 µg/mL (≈ 10.6 µM)

Q: What about the MBC ([10]; water additive DMSO) of the same compound?
A: 256 µg/mL (≈ 339 µM)

Q: And the MIC ([10]; water additive DMSO)?
A: 256 µg/mL (≈ 339 µM)

Q: What about the MBC ([10]; water additive EtOH) of the same compound?
A: 256 µg/mL (≈ 339 µM)

Q: And the MBC ([11]; H2O)?
A: 32 µg/mL (≈ 42.4 µM)

Q: And the MIC ([11]; H2O)?
A: 32 µg/mL (≈ 42.4 µM)

Q: What about the MBC ([11]; water additive DMSO) of the same compound?
A: 32 µg/mL (≈ 42.4 µM)

Q: And the MIC ([11]; water additive DMSO)?
A: 16 µg/mL (≈ 21.2 µM)

Q: What about the MBC ([11]; water additive EtOH) of the same compound?
A: 32 µg/mL (≈ 42.4 µM)

Q: And the MIC ([11]; water additive EtOH)?
A: 32 µg/mL (≈ 42.4 µM)

Q: What about the MBC ([12]; water additive EtOH) of the same compound?
A: 256 µg/mL (≈ 339 µM)

Q: And the “% AcCN (acetonitrile required for elution from the column)” value [13]?
A: 49.8% and 44.8–49.8%

Q: And the “effect on proliferation, in words” value [14]?
A: negative impact

Q: What about the “antiproliferative effect (decrease vs control)” value [14, 18] of the same compound?
A: ~50%

Q: What about the MBC ([15]; H2O) of the same compound?
A: 32 µg/mL (≈ 42.4 µM)

Q: And the MIC ([15]; H2O)?
A: 16 µg/mL (≈ 21.2 µM)

Q: What about the MBC ([15]; water additive DMSO) of the same compound?
A: 32 µg/mL (≈ 42.4 µM)

Q: And the MIC ([15]; water additive DMSO)?
A: 32 µg/mL (≈ 42.4 µM)

Q: What about the MIC ([15]; water additive EtOH) of the same compound?
A: 32 µg/mL (≈ 42.4 µM)

Q: And the “cytotoxicity (LDH), in words” value [16]?
A: cytotoxic to keratinocytes at all concentrations

Q: Which results are given for `CC(C)C[C@H](NC(=O)[C@H](CCCNC(=N)N)NC(=O)OCc1ccccc1)C(=O)N[C@H](CN)C(C)C` [Compound A-197]?
A: MBC ([1]; H2O): 512 µg/mL (≈ 1010 µM); MIC ([1]; H2O): 256 µg/mL (≈ 506 µM); MBC ([1]; water additive EtOH): 256 µg/mL (≈ 506 µM); MIC ([2]; H2O): > 512 µg/mL; MIC ([2]; water additive DMSO): > 512 µg/mL; MIC ([2]; water additive EtOH): > 512 µg/mL; MIC ([17]; H2O): > 512 µg/mL; MIC ([17]; water additive DMSO): > 512 µg/mL; MIC ([17]; water additive EtOH): > 512 µg/mL; cytotoxicity (LDH), in words [4]: no cytotoxicity; concentration at which cytotoxic effect starts ([4]; LDH): > 150 µg/mL; effect on proliferation, in words [5]: did not exert any negative impact; MIC ([6]; H2O): > 512 µg/mL; MIC ([6]; water additive DMSO): > 512 µg/mL; MIC ([6]; water additive EtOH): > 512 µg/mL; MIC ([7]; H2O): > 512 µg/mL; MIC ([7]; water additive DMSO): > 512 µg/mL; MIC ([7]; water additive EtOH): > 512 µg/mL; MIC ([8]; H2O): > 512 µg/mL; MIC ([8]; water additive DMSO): > 512 µg/mL; MIC ([8]; water additive EtOH): > 512 µg/mL; MIC ([9]; H2O): > 512 µg/mL; MIC ([9]; water additive DMSO): > 512 µg/mL; MIC ([9]; water additive EtOH): > 512 µg/mL; MIC ([10]; H2O): > 512 µg/mL; MIC ([10]; water additive DMSO): > 512 µg/mL; MIC ([10]; water additive EtOH): > 512 µg/mL; MIC ([11]; H2O): > 512 µg/mL; MIC ([11]; water additive DMSO): > 512 µg/mL; MIC ([11]; water additive EtOH): > 512 µg/mL; MIC ([12]; H2O): 256 µg/mL (≈ 506 µM); MIC ([12]; water additive DMSO): 256 µg/mL (≈ 506 µM); MIC ([12]; water additive EtOH): 256 µg/mL (≈ 506 µM); % AcCN (acetonitrile required for elution from the column) [13]: 42.5%; effect on proliferation, in words [14]: did not exert any negative impact; MIC ([15]; H2O): > 512 µg/mL; MIC ([15]; water additive DMSO): > 512 µg/mL; MIC ([15]; water additive EtOH): > 512 µg/mL; cytotoxicity (LDH), in words [16]: no cytotoxicity; concentration at which cytotoxic effect starts ([16]; LDH): > 150 µg/mL
